In test [1] the test system is genotype A, "Long" strain RSV. Put plainly: RSV-A assay (CPE protection in Hep-2 cells, ATPlite readout). In kind it is cell-based, Human respiratory syncytial virus (HRSV). The note with it: human respiratory syncytial virus, RSV-A Long strain, MOI 0.1, CPE protection, read-out: Human RSV-A (“Long”) EC50. The method, boiled down:
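In this cytopathic-effect protection format, infected Hep-2 cultures (MOI 0.1) are exposed to compound for 5 days. Surviving cell ATP is quantified with ATPlite, and EC50 is determined.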
Background: In ATP-based viability assays light output follows the ATP content of the culture.

Test [2] relates to HMPV clinical isolate TN/1501/A1. The test is described as follows: HMPV antiviral assay Method-B (clinical isolate TN/1501/A1 in LLC-MK2 cells, ATP-Lite readout). It is filed as cell-based, Human metapneumovirus (HMPV). The note with it: human metapneumovirus, LLC-MK2, 144 h, hMPV WT1501 (clinical isolate TN/1501/A1), 6 days. The method, boiled down: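 LLC-MK2 cells infected in suspension with TN/1501/A1 at MOI 0.014 in serum-free medium with 2 μg/mL TPCK-trypsin (final), incubated 6 days at 37° C. Compounds tested in duplicate, 10-point 3-fold dilutions from 10 μM. Cell health read by ATP-Lite luminescence, normalised to virus-only and cells-only controls; EC50 by four-parameter logistic fit.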

One may read the EC50 as the concentration needed to bring the measured effect to its halfway point. As for `COc1cc(C(=O)NC[C@](O)(c2cc3c(c(-c4cc(F)ccc4F)n2)OC[C@]3(C)C(N)=O)C(F)(F)F)cc2cn(C3CC3)nc12` [Example 992], the results for the EC50 in test [1] and in test [2] were under 200 nM and under 500 nM, respectively.
In the same order, the values of `COc1cc(C(=O)NC[C@](O)(c2cc3c(c(-c4ccc(F)cc4Cl)n2)OC[C@]3(C)C(N)=O)C(F)(F)F)cc2cn(C3CC3)nc12` [Example 993] are under 200 nM and under 500 nM.
As to `COc1cc(C(=O)NC[C@](O)(c2cc3c(c(-c4ccc(C(F)(F)F)s4)n2)OC[C@]3(C)C(N)=O)C(F)(F)F)cc2cn(C3CC3)nc12` [Example 994], the EC50 in test [1] is under 200 nM; in test [2], under 500 nM.
`COc1cc(C(=O)NC[C@](O)(c2cc3c(c(-c4ccc5c(c4)C(F)(F)C(=O)N5)n2)OC[C@]3(C)C(N)=O)C(F)(F)F)cc2cn(C3CC3)nc12` [Example 995]: the figures for the 50% effective concentration (EC50) in test [1] and in test [2] were over 200 nM and over 500 nM, respectively.
In the same order, the values of `COc1cc(C(=O)NC[C@](O)(c2cc3c(c(-c4cc(F)c(F)c(F)c4F)n2)OC[C@]3(C)C(N)=O)C(F)(F)F)cc2cn(C3CC3)nc12` [Example 996] are under 200 nM and under 500 nM.
With `COc1cc(C(=O)NC[C@](O)(c2cc3c(c(-c4c(F)cc(F)cc4F)n2)OC[C@]3(C)C(N)=O)C(F)(F)F)cc2cn(C3CC3)nc12` [Example 997], the figures for the half-maximal effective concentration (EC50) in test [1] and in test [2] were under 200 nM and under 500 nM, respectively.
In the same order, the values of `COc1cc(C(=O)NC[C@](O)(c2cc3c(c(-c4ccc(F)cc4)n2)OC[C@@]3(C(N)=O)C(F)F)C(F)(F)F)cc2cn(C3CC3)nc12` [Example 999] are under 200 nM and under 500 nM.
Take `COc1cc(C(=O)NC[C@](O)(c2cc3c(c(-c4ccc(F)cc4)n2)OC[C@]3(C(N)=O)C(F)F)C(F)(F)F)cc2cc(Cl)c(C)nc12` [Example 1000]: the EC50 in test [1] was under 200 nM; in test [2], over 500 nM.
`COc1cc(C(=O)NC[C@](O)(c2cc3c(c(-c4ccc(F)cc4)n2)OC[C@@]3(C(N)=O)C(F)F)C(F)(F)F)cc2cc(Cl)c(C)nc12` [Example 1001]: the EC50 in test [1] is under 200 nM; in test [2], under 500 nM.
For the molecule `COc1cc(C(=O)NC[C@](O)(c2cc3c(c(-c4ccc(F)c(Cl)c4)n2)OC[C@]3(C(N)=O)C(F)F)C(F)(F)F)cc2cn(C3CC3)nc12` [Example 1002], the half-maximal effective concentration (EC50) is over 200 nM in test [1] and over 500 nM in test [2].
In the same order, the values of `COc1cc(C(=O)NC[C@](O)(c2cc3c(c(-c4ccc(F)c(Cl)c4)n2)OC[C@@]3(C(N)=O)C(F)F)C(F)(F)F)cc2cn(C3CC3)nc12` [Example 1003] are under 200 nM and under 500 nM.
Taken in the same sequence, the figures for `COc1cc(C(=O)NC[C@](O)(c2cc3c(c(-c4ccc(F)c(Cl)c4)n2)OC[C@]3(C(N)=O)C(F)F)C(F)(F)F)cc2cc(Cl)c(C)nc12` [Example 1004] were over 200 nM and over 500 nM.
In the same order, the values of `COc1cc(C(=O)NC[C@](O)(c2cc3c(c(-c4ccc(F)c(Cl)c4)n2)OC[C@@]3(C(N)=O)C(F)F)C(F)(F)F)cc2cc(Cl)c(C)nc12` [Example 1005] are under 200 nM and under 500 nM.
Take `Cc1cnc2c(OC(F)F)cc(C(=O)NC[C@](O)(c3cc4c(c(-c5ccc(F)cc5)n3)OC[C@]4(C(N)=O)C(F)F)C(F)(F)F)cc2c1` [Example 1006]: the results for the EC50 in test [1] and in test [2] were over 200 nM and over 500 nM, respectively.
`Cc1cnc2c(OC(F)F)cc(C(=O)NC[C@](O)(c3cc4c(c(-c5ccc(F)cc5)n3)OC[C@@]4(C(N)=O)C(F)F)C(F)(F)F)cc2c1` [Example 1007]: the EC50 in test [1] was under 200 nM; in test [2], under 500 nM.
In the same order, the values of `Cc1cnc2c(OC(F)F)cc(C(=O)NC[C@](O)(c3cc4c(c(-c5ccc(F)c(Cl)c5)n3)OC[C@]4(C(N)=O)C(F)F)C(F)(F)F)cc2c1` [Example 1008] are over 200 nM and over 500 nM.
In the same order, the values of `Cc1cnc2c(OC(F)F)cc(C(=O)NC[C@](O)(c3cc4c(c(-c5ccc(F)c(Cl)c5)n3)OC[C@@]4(C(N)=O)C(F)F)C(F)(F)F)cc2c1` [Example 1009] are under 200 nM and under 500 nM.

(Values after US12612412B2, “Antiviral heterocyclic compounds” (Enanta Pharmaceuticals, Inc., priority 2021, dated 2026).)
